Measured values taken from ChEMBL document CHEMBL3217454, “Structureactivity relationship studies using peptide arrays: the example of HIV-1 Revintegrase interaction” (Medchemcomm, 2013).
Square brackets hold non-standard residues; d marks the D form. Peptide text beside a SMILES is read from it. NMeT = CN[C@H](C(=O)O)[C@@H](C)O; NMeK = CN[C@@H](CCCCN)C(=O)O; NMeV = CN[C@H](C(=O)O)C(C)C; NMeS = CN[C@@H](CO)C(=O)O; NMeA = CN[C@@H](C)C(=O)O

What was measured:
[1] = molecular target: Human immunodeficiency virus type 1 integrase (Human immunodeficiency virus 1) (UniProt Q7ZJM1); test: Binding affinity to HIV-1 integrase measured after overnight incubation by chemiluminescence analysis relative to IN 118-128; parameters: concentration or dose not given beside the values
[2] = test system: Human immunodeficiency virus 1; test: Binding affinity to HLT-tagged HIV-1 Rev measured after overnight incubation by chemiluminescence analysis relative to IN 118-128; parameters: concentration or dose not given beside the values

Chain of Human immunodeficiency virus type 1 integrase (Human immunodeficiency virus 1) (Q7ZJM1 as listed by the source): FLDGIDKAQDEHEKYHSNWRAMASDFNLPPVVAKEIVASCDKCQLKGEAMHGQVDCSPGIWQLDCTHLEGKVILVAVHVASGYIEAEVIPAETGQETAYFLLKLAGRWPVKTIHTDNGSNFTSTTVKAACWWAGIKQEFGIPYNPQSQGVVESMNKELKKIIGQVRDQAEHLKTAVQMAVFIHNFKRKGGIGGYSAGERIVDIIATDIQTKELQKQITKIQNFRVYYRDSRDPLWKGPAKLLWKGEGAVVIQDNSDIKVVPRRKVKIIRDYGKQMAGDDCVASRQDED

Compound | Activity [1] [%] | Activity [2] [%]
CC(C)[C@H](NC(=O)[C@@H](NC(=O)[C@@H](NC(=O)[C@H](CO)NC(=O)[C@@H](NC(=O)[C@@H](Cc1ccccc1)NC(=O)[C@H](CC(N)=O)NC(=O)[C@H](CO)NC(=O)CN)[C@@H](C)O)[C@@H](C)O)[C@@H](C)O)C(=O)N[C@@H](CCCCN)C(=O)N[C@@H](C)C(=O)O | 229 | 211
CC(C)[C@H](NC(=O)[C@@H](NC(=O)[C@@H](NC(=O)[C@H](CO)NC(=O)[C@@H](NC(=O)[C@H](Cc1ccccc1)NC(=O)[C@@H](CC(N)=O)NC(=O)[C@H](CO)NC(=O)CN)[C@@H](C)O)[C@@H](C)O)[C@@H](C)O)C(=O)N[C@@H](CCCCN)C(=O)N[C@@H](C)C(=O)O | 133 | 144
CC(C)[C@H](NC(=O)[C@@H](NC(=O)[C@@H](NC(=O)[C@H](CO)NC(=O)[C@@H](NC(=O)[C@H](Cc1ccccc1)NC(=O)[C@H](CC(N)=O)NC(=O)[C@@H](CO)NC(=O)CN)[C@@H](C)O)[C@@H](C)O)[C@@H](C)O)C(=O)N[C@@H](CCCCN)C(=O)N[C@@H](C)C(=O)O | 346 | 190
CC(C)[C@H](NC(=O)[C@@H](NC(=O)[C@@H](NC(=O)[C@H](CO)NC(=O)[C@H](NC(=O)[C@H](Cc1ccccc1)NC(=O)[C@H](CC(N)=O)NC(=O)[C@H](CO)NC(=O)CN)[C@@H](C)O)[C@@H](C)O)[C@@H](C)O)C(=O)N[C@@H](CCCCN)C(=O)N[C@@H](C)C(=O)O | 58 | 52
CC(C)[C@H](NC(=O)[C@@H](NC(=O)[C@@H](NC(=O)[C@H](CO)NC(=O)[C@@H](NC(=O)[C@H](Cc1ccccc1)NC(=O)[C@H](CC(N)=O)NC(=O)[C@H](CO)NC(=O)[C@H](C)N)[C@@H](C)O)[C@@H](C)O)[C@@H](C)O)C(=O)N[C@@H](CCCCN)C(=O)N[C@@H](C)C(=O)O (H-ASNFTSTTVKA-OH) | 116 | 77
CC(C)[C@H](NC(=O)[C@@H](NC(=O)[C@@H](NC(=O)[C@H](CO)NC(=O)[C@@H](NC(=O)[C@@H](N)Cc1ccccc1)[C@@H](C)O)[C@@H](C)O)[C@@H](C)O)C(=O)N[C@@H](CCCCN)C(=O)N[C@@H](C)C(=O)O (H-FTSTTVKA-OH) | 236 | 280
CC(C)[C@H](NC(=O)[C@@H](NC(=O)[C@@H](NC(=O)[C@H](CO)NC(=O)[C@@H](NC(=O)[C@H](Cc1ccccc1)NC(=O)[C@H](CC(N)=O)NC(=O)[C@H](C)NC(=O)CN)[C@@H](C)O)[C@@H](C)O)[C@@H](C)O)C(=O)N[C@@H](CCCCN)C(=O)N[C@@H](C)C(=O)O (H-GANFTSTTVKA-OH) | 177 | 146
CC(C)[C@H](NC(=O)[C@@H](NC(=O)[C@@H](NC(=O)[C@H](CO)NC(=O)[C@@H](NC(=O)[C@H](Cc1ccccc1)NC(=O)[C@H](C)NC(=O)[C@H](CO)NC(=O)CN)[C@@H](C)O)[C@@H](C)O)[C@@H](C)O)C(=O)N[C@@H](CCCCN)C(=O)N[C@@H](C)C(=O)O (H-GSAFTSTTVKA-OH) | 198 | 151
CC(C)[C@H](NC(=O)[C@@H](NC(=O)[C@@H](NC(=O)[C@H](CO)NC(=O)[C@@H](NC(=O)[C@H](C)NC(=O)[C@H](CC(N)=O)NC(=O)[C@H](CO)NC(=O)CN)[C@@H](C)O)[C@@H](C)O)[C@@H](C)O)C(=O)N[C@@H](CCCCN)C(=O)N[C@@H](C)C(=O)O (H-GSNATSTTVKA-OH) | 133 | 31
CC(C)[C@H](NC(=O)[C@@H](NC(=O)[C@@H](NC(=O)[C@H](CO)NC(=O)[C@H](C)NC(=O)[C@H](Cc1ccccc1)NC(=O)[C@H](CC(N)=O)NC(=O)[C@H](CO)NC(=O)CN)[C@@H](C)O)[C@@H](C)O)C(=O)N[C@@H](CCCCN)C(=O)N[C@@H](C)C(=O)O (H-GSNFASTTVKA-OH) | 228 | 120
CC(C)[C@H](NC(=O)[C@@H](NC(=O)[C@@H](NC(=O)[C@H](C)NC(=O)[C@@H](NC(=O)[C@H](Cc1ccccc1)NC(=O)[C@H](CC(N)=O)NC(=O)[C@H](CO)NC(=O)CN)[C@@H](C)O)[C@@H](C)O)[C@@H](C)O)C(=O)N[C@@H](CCCCN)C(=O)N[C@@H](C)C(=O)O (H-GSNFTATTVKA-OH) | 135 | 182
C[C@@H](O)[C@H](NC(=O)[C@H](Cc1ccccc1)NC(=O)[C@H](CC(N)=O)NC(=O)[C@H](CO)NC(=O)CN)C(=O)N[C@@H](CO)C(=O)O (H-GSNFTS-OH) | 0 | 0
CC(C)[C@H](NC(=O)[C@@H](NC(=O)[C@H](C)NC(=O)[C@H](CO)NC(=O)[C@@H](NC(=O)[C@H](Cc1ccccc1)NC(=O)[C@H](CC(N)=O)NC(=O)[C@H](CO)NC(=O)CN)[C@@H](C)O)[C@@H](C)O)C(=O)N[C@@H](CCCCN)C(=O)N[C@@H](C)C(=O)O (H-GSNFTSATVKA-OH) | 231 | 107
C[C@@H](O)[C@H](NC(=O)[C@H](CO)NC(=O)[C@@H](NC(=O)[C@H](Cc1ccccc1)NC(=O)[C@H](CC(N)=O)NC(=O)[C@H](CO)NC(=O)CN)[C@@H](C)O)C(=O)O (H-GSNFTST-OH) | 34 | 0
CC(C)[C@H](NC(=O)[C@H](C)NC(=O)[C@@H](NC(=O)[C@H](CO)NC(=O)[C@@H](NC(=O)[C@H](Cc1ccccc1)NC(=O)[C@H](CC(N)=O)NC(=O)[C@H](CO)NC(=O)CN)[C@@H](C)O)[C@@H](C)O)C(=O)N[C@@H](CCCCN)C(=O)N[C@@H](C)C(=O)O (H-GSNFTSTAVKA-OH) | 182 | 124
C[C@@H](O)[C@H](NC(=O)[C@@H](NC(=O)[C@H](CO)NC(=O)[C@@H](NC(=O)[C@H](Cc1ccccc1)NC(=O)[C@H](CC(N)=O)NC(=O)[C@H](CO)NC(=O)CN)[C@@H](C)O)[C@@H](C)O)C(=O)O (H-GSNFTSTT-OH) | 19 | 0
C[C@H](NC(=O)[C@H](CCCCN)NC(=O)[C@H](C)NC(=O)[C@@H](NC(=O)[C@@H](NC(=O)[C@H](CO)NC(=O)[C@@H](NC(=O)[C@H](Cc1ccccc1)NC(=O)[C@H](CC(N)=O)NC(=O)[C@H](CO)NC(=O)CN)[C@@H](C)O)[C@@H](C)O)[C@@H](C)O)C(=O)O (H-GSNFTSTTAKA-OH) | 129 | 64
CC(C)[C@H](NC(=O)[C@@H](NC(=O)[C@@H](NC(=O)[C@H](CO)NC(=O)[C@@H](NC(=O)[C@H](Cc1ccccc1)NC(=O)[C@H](CC(N)=O)NC(=O)[C@H](CO)NC(=O)CN)[C@@H](C)O)[C@@H](C)O)[C@@H](C)O)C(=O)O (H-GSNFTSTTV-OH) | 27 | 0
CC(C)[C@H](NC(=O)[C@@H](NC(=O)[C@@H](NC(=O)[C@H](CO)NC(=O)[C@@H](NC(=O)[C@H](Cc1ccccc1)NC(=O)[C@H](CC(N)=O)NC(=O)[C@H](CO)NC(=O)CN)[C@@H](C)O)[C@@H](C)O)[C@@H](C)O)C(=O)N[C@@H](C)C(=O)N[C@@H](C)C(=O)O (H-GSNFTSTTVAA-OH) | 85 | 0
CC(C)[C@H](NC(=O)[C@@H](NC(=O)[C@@H](NC(=O)[C@H](CO)NC(=O)[C@@H](NC(=O)[C@H](Cc1ccccc1)NC(=O)[C@H](CC(N)=O)NC(=O)[C@H](CO)NC(=O)CN)[C@@H](C)O)[C@@H](C)O)[C@@H](C)O)C(=O)N[C@@H](CCCCN)C(=O)O (H-GSNFTSTTVK-OH) | 242 | 201
CC(C)[C@H](NC(=O)[C@@H](NC(=O)[C@@H](NC(=O)[C@H](CO)NC(=O)[C@@H](NC(=O)[C@H](Cc1ccccc1)NC(=O)[C@H](CC(N)=O)NC(=O)[C@H](CO)NC(=O)CN)[C@@H](C)O)[C@@H](C)O)[C@@H](C)O)C(=O)N[C@@H](CCCCN)C(=O)N(C)[C@@H](C)C(=O)O (H-GSNFTSTTVK[NMeA]-OH) | 136 | 141
CC(C)[C@H](NC(=O)[C@@H](NC(=O)[C@@H](NC(=O)[C@H](CO)NC(=O)[C@@H](NC(=O)[C@H](Cc1ccccc1)NC(=O)[C@H](CC(N)=O)NC(=O)[C@H](CO)NC(=O)CN)[C@@H](C)O)[C@@H](C)O)[C@@H](C)O)C(=O)N(C)[C@@H](CCCCN)C(=O)N[C@@H](C)C(=O)O (H-GSNFTSTTV[NMeK]A-OH) | 185 | 191
CC(C)[C@@H](C(=O)N[C@@H](CCCCN)C(=O)N[C@@H](C)C(=O)O)N(C)C(=O)[C@@H](NC(=O)[C@@H](NC(=O)[C@H](CO)NC(=O)[C@@H](NC(=O)[C@H](Cc1ccccc1)NC(=O)[C@H](CC(N)=O)NC(=O)[C@H](CO)NC(=O)CN)[C@@H](C)O)[C@@H](C)O)[C@@H](C)O (H-GSNFTSTT[NMeV]KA-OH) | 273 | 215
CC(C)[C@H](NC(=O)[C@H]([C@@H](C)O)N(C)C(=O)[C@@H](NC(=O)[C@H](CO)NC(=O)[C@@H](NC(=O)[C@H](Cc1ccccc1)NC(=O)[C@H](CC(N)=O)NC(=O)[C@H](CO)NC(=O)CN)[C@@H](C)O)[C@@H](C)O)C(=O)N[C@@H](CCCCN)C(=O)N[C@@H](C)C(=O)O (H-GSNFTST[NMeT]VKA-OH) | 265 | 168
CC(C)[C@H](NC(=O)[C@@H](NC(=O)[C@H]([C@@H](C)O)N(C)C(=O)[C@H](CO)NC(=O)[C@@H](NC(=O)[C@H](Cc1ccccc1)NC(=O)[C@H](CC(N)=O)NC(=O)[C@H](CO)NC(=O)CN)[C@@H](C)O)[C@@H](C)O)C(=O)N[C@@H](CCCCN)C(=O)N[C@@H](C)C(=O)O (H-GSNFTS[NMeT]TVKA-OH) | 249 | 197
CC(C)[C@H](NC(=O)[C@@H](NC(=O)[C@@H](NC(=O)[C@H](CO)N(C)C(=O)[C@@H](NC(=O)[C@H](Cc1ccccc1)NC(=O)[C@H](CC(N)=O)NC(=O)[C@H](CO)NC(=O)CN)[C@@H](C)O)[C@@H](C)O)[C@@H](C)O)C(=O)N[C@@H](CCCCN)C(=O)N[C@@H](C)C(=O)O (H-GSNFT[NMeS]TTVKA-OH) | 312 | 279
CC(C)[C@H](NC(=O)[C@@H](NC(=O)[C@@H](NC(=O)[C@H](CO)NC(=O)[C@H]([C@@H](C)O)N(C)C(=O)[C@H](Cc1ccccc1)NC(=O)[C@H](CC(N)=O)NC(=O)[C@H](CO)NC(=O)CN)[C@@H](C)O)[C@@H](C)O)C(=O)N[C@@H](CCCCN)C(=O)N[C@@H](C)C(=O)O (H-GSNF[NMeT]STTVKA-OH) | 165 | 200
